The values below come from PMC7369900 (International Journal of Molecular Sciences, 2020).

Converted amounts (≈) assume the structure as drawn. Like-named read-outs stand apart in the source and are kept apart here. Bounds are passed on as bounds.

A word on the IC50: it is the concentration that gives 50% inhibition. Read a low IC50 as greater potency in that assay.

One series deals with C. albicans Gu5. Kind of series: microbe, parasite or virus in culture. As to conditions: Candida albicans.
Series [1] deals with C. glabrata DSM 11226. Kind of series: microbe, parasite or virus in culture. As to conditions: Nakaseomyces glabratus, DSM11226.
For series [2], the system named is C. krusei DSM 6128. Kind of series: microbe, parasite or virus in culture. As to conditions: Pichia kudriavzevii, DSM6128.
Series [3] deals with C. albicans Δopt1Δopt5Δptr2Δptr22. Kind of series: microbe, parasite or virus in culture. Particulars: Candida albicans.
For series [4], the system named is C. albicans Gu4. Kind of series: microbe, parasite or virus in culture. As to conditions: Candida albicans.
In series [5] the test system is C. albicans SC 5314. As to the kind of experiment: microbe, parasite or virus in culture. Particulars: Candida albicans, SC5314.
The subject of a further series is human red blood cells. As to the kind of experiment: Hemolysis assay. As to conditions: 1 h, 37 °C.
For series [6], the system named is C. albicans Gu4.
The next series deals with bacteria. Kind of series: Influence of salts: antibacterial activity in MHB2 compared to MHB. As to conditions: MHB2: Ca(II) 20–25 mg/L, Mg(II) 10–12.5 mg/L. It is filed as cell-based. As for the experimental part:
Additionally, for selected compounds, the aspect of the influence of salts present in the medium on antimicrobial activity was evaluated. […] In the salt-enriched medium, the MIC values determined for TP10-NH2 were up to 40-fold higher than those found in MHB. The phenomenon of reduction of the growth inhibitory activity of antimicrobial peptides at a high salt concentration was previously evidenced by other researchers. It may cause severe limitations for AMPs’ usage as therapeutic agents because of the risk of potential inactivation by salts present in the human body.

Another series relates to E. coli ATCC 25922. Kind of series: microbe, parasite or virus in culture. It is filed as cell-based, Escherichia coli. Particulars: E. coli ATCC 25922, MHB. Summed up: (§1)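 MIC and MBC were determined by serial two-fold broth microdilution in Mueller Hinton broth per CLSI M07-A10, in triplicate. MIC90 and MIC50 are the concentrations giving 90% or 50% growth reduction versus drug-free control.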

For the next series, the system named is E. coli ATCC 25,922. Details: method as in PMID 25891396. As to conditions: cited from earlier work.
In series [7] the test system is S. aureus ATCC 25,923 cells. Kind of series: Stability inside bacterial cells (LC-MS of cell lysate).
For the next series, the system named is HL-60. Kind of series: ROS generation (CM-H2DCFDA, flow cytometry). It is filed as cell-based, human. As to conditions: positive cells in 24 h, class. (In general: In flow cytometry, cells or beads pass a laser one at a time.)
The subject of series [8] is HEK 293. As to the kind of experiment: ROS generation (CM-H2DCFDA, flow cytometry). Particulars: positive cells in 24 h, class. In kind it is cell-based, human. Summed up: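 Cells were seeded 24 h in DMEM, then incubated 0.5, 2.5, 5.5 or 24 h at 37 °C, with 250 µM H2O2 as positive control. CM-H2DCFDA was added for a further 0.5 h, with 7-AAD (0.8 µg/mL) co-staining before flow cytometry. The read-out was the fraction of ROS-positive cells, in triplicate.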

Series [9] has as its target T1, yeast DNA topoisomerase II (Saccharomyces cerevisiae, UniProt P06786).
T1 construct: purchased Inspiralis (Norwich, UK)
As to the kind of experiment: biochemical. It is filed as biochemical. As to conditions: pBR322 relaxation, 30 °C, 30 min.

Series [10] concerns C. krusei DSM 6128.
The test system of series [11] is C. albicans SC 5314.
Series [12] deals with Staphylococcus aureus ATCC 25,923. Details: method as in PMID 25891396. As to conditions: cited from earlier work.
The test system of series [13] is yeasts of the Candida genus.
Another series relates to P. aeruginosa ATCC 27853. As to the kind of experiment: microbe, parasite or virus in culture. It is filed as cell-based, Pseudomonas aeruginosa. The procedure, abridged:
as §1

Series [14] relates to C. glabrata DSM 11226.
The subject of series [15] is S. epidermidis ATCC 12228. Kind of series: microbe, parasite or virus in culture. It is filed as cell-based, Staphylococcus epidermidis. Particulars: S. epidermidis ATCC 12228, MHB. The procedure, abridged: as §1
Series [16] concerns C. albicans Δopt1Δopt5Δptr2Δptr22.
The subject of another series is S. aureus ATCC 29213. Kind of series: microbe, parasite or virus in culture. In kind it is cell-based, Staphylococcus aureus. As to conditions: S. aureus ATCC 29213, MHB. The procedure, abridged:
as §1

In a further series the test system is LLC-PK1. Kind of series: cells. In kind it is cell-based, pig. As to conditions: LLC-PK1, 72 h, MTT. Summed up:
(§2)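 MTT assay after 72 h compound exposure at 37 °C; LLC-PK1 in Medium 199 + 7.5% FBS, Hep G2 in MEM Eagle + 10% FBS, HEK 293 in DMEM + 10% FBS (10% CO2 for HEK 293, otherwise 5%). MTT 3 h, formazan in DMSO, A540; cytotoxicity relative to drug-free control, triplicates.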

In the next series the test system is Hep G2. Kind of series: cells. As to conditions: Hep G2, 72 h, MTT. It is filed as cell-based, human. The procedure, abridged: as §2
For series [17], the system named is HEK 293. Kind of series: cells. As to conditions: HEK 293, 72 h, MTT. In kind it is cell-based, human. The procedure, abridged: as §2

T1 sequence (P06786 whole entry): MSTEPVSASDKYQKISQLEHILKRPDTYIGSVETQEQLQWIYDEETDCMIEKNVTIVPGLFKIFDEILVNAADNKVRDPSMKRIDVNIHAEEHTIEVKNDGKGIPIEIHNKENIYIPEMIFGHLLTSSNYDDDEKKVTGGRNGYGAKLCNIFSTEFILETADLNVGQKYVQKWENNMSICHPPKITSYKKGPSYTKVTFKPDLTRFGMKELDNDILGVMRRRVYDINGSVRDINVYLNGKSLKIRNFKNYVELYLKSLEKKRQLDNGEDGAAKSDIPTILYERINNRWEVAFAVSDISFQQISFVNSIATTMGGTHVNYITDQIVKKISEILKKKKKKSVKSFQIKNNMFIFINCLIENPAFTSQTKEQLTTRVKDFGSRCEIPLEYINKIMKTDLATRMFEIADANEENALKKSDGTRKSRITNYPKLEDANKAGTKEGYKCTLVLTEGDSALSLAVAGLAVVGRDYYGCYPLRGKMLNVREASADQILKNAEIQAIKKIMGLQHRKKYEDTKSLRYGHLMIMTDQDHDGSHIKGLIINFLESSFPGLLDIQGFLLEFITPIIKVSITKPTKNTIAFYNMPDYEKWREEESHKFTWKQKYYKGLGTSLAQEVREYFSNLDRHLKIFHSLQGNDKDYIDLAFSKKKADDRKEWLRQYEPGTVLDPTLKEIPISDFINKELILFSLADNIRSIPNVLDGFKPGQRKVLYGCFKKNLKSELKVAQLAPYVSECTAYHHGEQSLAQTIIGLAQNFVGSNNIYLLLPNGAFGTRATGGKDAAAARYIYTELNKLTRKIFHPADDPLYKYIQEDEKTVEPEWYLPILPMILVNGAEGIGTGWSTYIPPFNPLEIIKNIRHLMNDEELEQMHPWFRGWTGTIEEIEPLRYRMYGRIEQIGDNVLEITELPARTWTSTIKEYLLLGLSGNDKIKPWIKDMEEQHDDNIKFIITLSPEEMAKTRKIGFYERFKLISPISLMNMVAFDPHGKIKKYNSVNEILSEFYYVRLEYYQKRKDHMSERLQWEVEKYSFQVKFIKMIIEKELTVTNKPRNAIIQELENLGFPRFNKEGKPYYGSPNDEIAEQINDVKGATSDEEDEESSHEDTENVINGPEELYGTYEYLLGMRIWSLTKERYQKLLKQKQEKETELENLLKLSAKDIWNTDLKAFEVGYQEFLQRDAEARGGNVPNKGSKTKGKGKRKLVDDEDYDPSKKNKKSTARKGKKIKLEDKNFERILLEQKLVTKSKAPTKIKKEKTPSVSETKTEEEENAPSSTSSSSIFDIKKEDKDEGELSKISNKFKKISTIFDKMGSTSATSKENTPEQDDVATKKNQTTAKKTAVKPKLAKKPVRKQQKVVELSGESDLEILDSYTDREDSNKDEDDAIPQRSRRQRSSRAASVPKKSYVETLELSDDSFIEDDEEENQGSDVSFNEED

Regarding `OC(Cn1cncn1)(Cn1cncn1)c1ccc(F)cc1F` [FLU, Fluconazole], the MIC50 was > 200 µM against C. albicans Gu5; 100 µM (≈ 30.6 µg/mL) with C. glabrata DSM 11226 [1]; 50 µM (≈ 15.3 µg/mL) in the series on C. krusei DSM 6128 [2]; 50 µM (≈ 15.3 µg/mL) in series [3]; 50 µM (≈ 15.3 µg/mL) with C. albicans Gu4 [4]; 50 µM (≈ 15.3 µg/mL) in the series with C. albicans SC 5314 [5]. Also, the MIC90 (in series [3]; in the series on C. albicans SC 5314 [5]) was 100 µM (≈ 30.6 µg/mL) each time.

Regarding `CC[C@H](C)[C@H](NC(=O)[C@H](CCCCN)NC(=O)[C@H](CCCCN)NC(=O)[C@H](C)NC(=O)[C@H](CC(C)C)NC(=O)[C@H](C)NC(=O)[C@H](C)NC(=O)[C@H](CC(C)C)NC(=O)[C@H](C)NC(=O)[C@H](CCCCN)NC(=O)[C@H](CC(C)C)NC(=O)[C@H](CC(N)=O)NC(=O)[C@@H](NC(=O)[C@H](CCCCN)NC(=O)CNC(=O)[C@H](CC(C)C)NC(=O)[C@H](CC(C)C)NC(=O)[C@H](Cc1ccc(O)cc1)NC(=O)CNC(=O)[C@H](C)N)[C@@H](C)CC)C(=O)N[C@@H](CC(C)C)C(N)=O` [TP10-NH2, transportan 10, reference compound], the “MHC50 (concentration causing 50% hemolysis)” value in the series with human red blood cells was ~200 µg/mL; with human red blood cells (converted from μg/mL), ~ 92 μM. Besides, the MIC50 in the series with C. albicans Gu4 [6] is 100 µM (≈ 218 µg/mL); against E. coli ATCC 25922 it was 1.6 µM (≈ 3.49 µg/mL); with C. krusei DSM 6128 [10], >200 µM; with C. albicans SC 5314 [11], 100 µM (≈ 218 µg/mL); in the series with P. aeruginosa ATCC 27853 (P. aeruginosa ATCC 27853, MHB), >100 µM; against C. glabrata DSM 11226 [14], >200 µM. Also, the figures for the MIC50 (in [15]; in series [16]; in the series on S. aureus ATCC 29213) were 1.6 µM (≈ 3.49 µg/mL), 100 µM (≈ 218 µg/mL) and 3.125 µM (≈ 6.82 µg/mL), respectively. In the series on bacteria, the “Influence of salts (MHB2 vs MHB) on antibacterial activity” value is listed as “strongly affected”. The “MIC in salt-enriched medium (MHB2) relative to MHB” value with bacteria is “up to 40 fold”. The MIC90 against E. coli ATCC 25922 was 1.6 µM (≈ 3.49 µg/mL); in the series on C. albicans SC 5314 [11], 100 µM (≈ 218 µg/mL); against P. aeruginosa ATCC 27853 (P. aeruginosa ATCC 27853, MHB), >100 µM; in series [15] it was 1.6 µM (≈ 3.49 µg/mL); in series [16], 100 µM (≈ 218 µg/mL); in the series on S. aureus ATCC 29213, 3.125 µM (≈ 6.82 µg/mL). For the same molecule, the MIC is ~ 7 μM in the series with E. coli ATCC 25,922 (E. coli ATCC 25,922, converted from μg/mL); 16 µg/mL (≈ 7.33 µM) with E. coli ATCC 25,922 (E. coli ATCC 25,922); ~ 7 μM in series [12] (Staphylococcus aureus ATCC 25,923, converted from μg/mL); 16 µg/mL (≈ 7.33 µM) in [12] (Staphylococcus aureus ATCC 25,923); > 100 µM in the series on P. aeruginosa ATCC 27853 (Pseudomonas aeruginosa, MHB). Further, the “Stability inside bacterial cells” value in [7] is “resistant inside the bacterial cells”. In addition, the “ROS HL-60” value with HL-60 is given as “++ (++ <10% positive cells in 24 h)”. Also, the “ROS HEK 293” value with HEK 293 [8] is given as “++ (++ <10% positive cells in 24 h)”. Also, in [9], the “Concentration of complete inhibition of topoisomerase II activity” value turned out to be 50 µM. In addition, the “MIC against C. albicans” value in [13] was determined as 100 µM (≈ 218 µg/mL). In addition, the IC50 stood at 22.7 ± 5.65 µM in the series on LLC-PK1, 32.1 ± 1.65 µM in the series with Hep G2 and 25.1 ± 0.86 µM in the series with HEK 293 [17].
